For series [1], the system named is Staphylococcus aureus. The series can be described thus: Antibacterial activity against methicillin-resistant Staphylococcus aureus ATCC 33591 infected in Balb/c mouse model of pneumonia infection assessed as reduction in alveolar contraction in lung at 10 mg/kg, ip administered thrice at 4, 8 and 12 hrs post-infection measured after 24 hrs post-infection by H and E staining based analysis. The series is classed as functional, organism-based.

Series [2] has as its system Staphylococcus aureus. The series can be described thus: Antibacterial activity against methicillin-resistant Staphylococcus aureus ATCC 33591 infected in Balb/c mouse model of pneumonia infection assessed as reduction in bacterial load in lung at 10 mg/kg, ip administered thrice at 4, 8 and 12 hrs post-infection measured after 24 hrs post-infection. It counts as functional, organism-based. Particulars: time 20.0 hrs.

Series [3] has as its system Staphylococcus aureus. The series is described as follows: Antibacterial activity against methicillin-resistant Staphylococcus aureus ATCC 33591 infected in Balb/c mouse model of pneumonia infection assessed as reduction in TNF-alpha activity in lung at 10 mg/kg, ip administered thrice at 4, 8 and 12 hrs post-infection measured after 24 hrs post-infection by IHC analysis. The note with it: time 20.0 hrs. It counts as functional, organism-based.

Series [4] concerns Staphylococcus aureus. The series is described as follows: Antibacterial activity against methicillin-resistant Staphylococcus aureus ATCC 33591 infected in Balb/c mouse model of skin wound infection assessed as reduction in inflammatory cell infiltration in skin at 10 mg/kg, ip administered thrice at 1, 24 and 48 hrs post-infection measured after 14 days by H and E staining based analysis. The series is classed as functional, organism-based. Particulars: time 14.0 day.

Series [5] has as its system Staphylococcus aureus. The series is described as follows: Antibacterial activity against methicillin-resistant Staphylococcus aureus ATCC 33591 infected in Balb/c mouse model of pneumonia infection assessed as reduction in IL-1beta activity in lung at 10 mg/kg, ip administered thrice at 4, 8 and 12 hrs post-infection measured after 24 hrs post-infection by IHC analysis. The series is classed as functional, organism-based. Particulars: time 20.0 hrs.

The test system of series [6] is Staphylococcus aureus. The series is described as follows: Antibacterial activity against methicillin-resistant Staphylococcus aureus ATCC 33591 infected in Balb/c mouse model of skin wound infection assessed as reduction in TNF-alpha activity in skin at 10 mg/kg, ip administered thrice at 1, 24 and 48 hrs post-infection measured after 14 days by IHC analysis. The series is classed as functional, organism-based. Particulars: time 14.0 day.

Series [7] deals with Staphylococcus aureus. The series can be described thus: Antibacterial activity against methicillin-resistant Staphylococcus aureus ATCC 33591 infected in Balb/c mouse model of pneumonia infection assessed as reduction in bleeding in lung at 10 mg/kg, ip administered thrice at 4, 8 and 12 hrs post-infection measured after 24 hrs post-infection by H and E staining based analysis. The series is classed as functional, organism-based. The note with it: time 20.0 hrs.

The test system of series [8] is Staphylococcus aureus. The series can be described thus: Antibacterial activity against methicillin-resistant Staphylococcus aureus ATCC 33591 infected in Balb/c mouse model of skin wound infection assessed as reduction in keratosis in wound surface at 10 mg/kg, ip administered thrice at 1, 24 and 48 hrs post-infection measured after 14 days by IHC analysis. The note with it: time 14.0 day. It counts as functional, organism-based.

Series [9] relates to Staphylococcus aureus. The series is described as follows: Antibacterial activity against methicillin-resistant Staphylococcus aureus ATCC 33591 infected in Balb/c mouse model of skin wound infection assessed as reduction in bacterial load in skin at 10 mg/kg, ip administered thrice at 1, 24 and 48 hrs post-infection measured after 72 hrs post-infection. The series is classed as functional, organism-based. Particulars: time 71.0 hrs.

For series [10], the system named is Staphylococcus aureus. The series can be described thus: Antibacterial activity against methicillin-resistant Staphylococcus aureus ATCC 33591 infected in Balb/c mouse model of skin wound infection assessed as reduction in IL-1beta activity in skin at 10 mg/kg, ip administered thrice at 1, 24 and 48 hrs post-infection measured after 14 days by IHC analysis. It counts as functional, organism-based. The note with it: time 14.0 day.

Series [11] relates to Staphylococcus aureus. The series is described as follows: Antibacterial activity against methicillin-resistant Staphylococcus aureus ATCC 33591 infected in Balb/c mouse model of pneumonia infection assessed as reduction in inflammatory cell infiltration in lung at 10 mg/kg, ip administered thrice at 4, 8 and 12 hrs post-infection measured after 24 hrs post-infection by H and E staining based analysis. It counts as functional, organism-based. The note with it: time 20.0 hrs.

In series [12] the test system is Staphylococcus aureus. The series is described as follows: Antibacterial activity against methicillin-resistant Staphylococcus aureus ATCC 33591 infected in Balb/c mouse model of acute systemic infection at 10 mg/kg, ip measured after 5 days. The series is classed as functional, organism-based. Particulars: time 5.0 day.
The test system of a further series is Enterococcus faecalis. The series is described as follows: Antibacterial activity against Enterococcus faecalis ATCC 29212 incubated for 18 to 24 hrs by broth microdilution method. It counts as functional. Particulars: time 18-24 hrs. (Broth dilution looks for growth in wells or tubes with falling amounts of substance.)
The subject of series [13] is Staphylococcus aureus. The series is described as follows: Antibacterial activity against Staphylococcus aureus ATCC 29213 incubated for 18 to 24 hrs by broth microdilution method. Particulars: time 18-24 hrs. The series is classed as functional.
A short description of series [14]: Stability in mouse serum assessed as half life measured upto 96 hrs by RP-HPLC analysis. It counts as ADME, cell-free.
The test system of series [15] is Staphylococcus aureus. The series can be described thus: Antibacterial activity against methicillin-resistant Staphylococcus aureus ATCC 33591 incubated for 18 to 24 hrs in presence of 2 mg/ml of trypsin by broth microdilution method. The series is classed as functional. The note with it: time 18-24 hrs.
Series [16] concerns Staphylococcus aureus. The series is described as follows: Antibacterial activity against methicillin-resistant Staphylococcus aureus ATCC 33591 incubated for 18 to 24 hrs in presence of 1 mg/ml of chymotrypsin by broth microdilution method. It counts as functional. Particulars: time 18-24 hrs.
Series [17] in a line: Stability in mouse serum assessed as compound degradation measured upto 96 hrs by RP-HPLC analysis. Particulars: read-out: Drug degradation. The series is classed as ADME, cell-free.
The subject of series [18] is Staphylococcus aureus. The series is described as follows: Antibacterial activity against methicillin-resistant Staphylococcus aureus ATCC 33591 incubated for 18 to 24 hrs in presence of 0.5 mg/ml of pepsin by broth microdilution method. It counts as functional. Particulars: time 18-24 hrs.
The test system of series [19] is Staphylococcus aureus. The series is described as follows: Antibacterial activity against methicillin-resistant Staphylococcus aureus ATCC 33591 assessed as fold change in MIC incubated for 18 to 24 hrs in presence of 10 percent FBS by broth microdilution method. It counts as functional. The note with it: time 18-24 hrs.
Series [20] concerns Staphylococcus aureus. The series can be described thus: Antibacterial activity against methicillin-resistant Staphylococcus aureus ATCC 33591 incubated for 18 to 24 hrs by broth microdilution method. It counts as functional. The note with it: time 18-24 hrs.
In series [21] the test system is Staphylococcus aureus. The series can be described thus: Antibacterial activity against methicillin-resistant Staphylococcus aureus ATCC 33591 incubated for 18 to 24 hrs in presence of 0.5 mg/ml of trypsin by broth microdilution method. It counts as functional. The note with it: time 18-24 hrs.
Series [22] can be described thus: Hemolytic activity in mouse Red blood cells incubated for 1 hr by absorbance based analysis. The series is classed as toxicity, cell-based. Particulars: erythrocyte.
For series [23], the system named is Staphylococcus aureus. The series is described as follows: Antibacterial activity against methicillin-resistant Staphylococcus aureus ATCC 33591 assessed as fold change in MIC incubated for 18 to 24 hrs in presence of 10 percent mouse serum by broth microdilution method. The series is classed as functional. Particulars: time 18-24 hrs.
The test system of series [24] is Staphylococcus aureus. The series is described as follows: Antibacterial activity against methicillin-resistant Staphylococcus aureus ATCC 33591 incubated for 18 to 24 hrs in presence of 2 mg/ml of pepsin by broth microdilution method. It counts as functional. The note with it: time 18-24 hrs.
Series [25] relates to Staphylococcus aureus. The series can be described thus: Antibacterial activity against methicillin-resistant Staphylococcus aureus ATCC 33591 assessed as fold change in MIC incubated for 18 to 24 hrs in presence of MgCl2 by broth microdilution method. The series is classed as functional. The note with it: time 18-24 hrs.
The test system of series [26] is Staphylococcus epidermidis. The series is described as follows: Antibacterial activity against Staphylococcus epidermidis ATCC 12228 incubated for 18 to 24 hrs by broth microdilution method. The note with it: time 18-24 hrs. The series is classed as functional.
In series [27] the test system is Staphylococcus aureus. The series can be described thus: Antibacterial activity against methicillin-resistant Staphylococcus aureus ATCC 33591 incubated for 18 to 24 hrs in presence of 1 mg/ml of pepsin by broth microdilution method. It counts as functional. Particulars: time 18-24 hrs.
The subject of series [28] is Staphylococcus aureus. The series is described as follows: Antibacterial activity against Staphylococcus aureus ATCC 25923 incubated for 18 to 24 hrs by broth microdilution method. It counts as functional. The note with it: time 18-24 hrs.
In series [29] the test system is Staphylococcus aureus. The series can be described thus: Antibacterial activity against methicillin-resistant Staphylococcus aureus ATCC 33591 incubated for 18 to 24 hrs in presence of 0.5 mg/ml of chymotrypsin by broth microdilution method. The series is classed as functional. Particulars: time 18-24 hrs.
The nature of series [30]: Retention time of compound by RP-HPLC analysis. It counts as physicochemical.
Series [31] relates to Staphylococcus aureus. The series is described as follows: Antibacterial activity against methicillin-resistant Staphylococcus aureus ATCC 33591 incubated for 18 to 24 hrs in presence of 2 mg/ml of chymotrypsin by broth microdilution method. The note with it: time 18-24 hrs. It counts as functional.
Series [32] relates to Staphylococcus aureus. The series can be described thus: Antibacterial activity against methicillin-resistant Staphylococcus aureus ATCC 33591 assessed as fold change in MIC incubated for 18 to 24 hrs in presence of NaCl by broth microdilution method. It counts as functional. Particulars: time 18-24 hrs.
Series [33] concerns Staphylococcus aureus. The series is described as follows: Antibacterial activity against methicillin-resistant Staphylococcus aureus ATCC 33591 incubated for 18 to 24 hrs in presence of 1 mg/ml of trypsin by broth microdilution method. It counts as functional. Particulars: time 18-24 hrs.

Each structure is given as a SMILES string. Converted amounts (≈) assume the structure as drawn. The source made the active and inactive calls. The calls are words filed in the database; no cut-off is given here. Where a SMILES comes first, the peptide text is derived from it. Bridges are numbered along the chain shown (N, C = ends). [ ]: non-standard residue; d: D form. The star is where a group is joined. X1 = CC[C@H](C)CCCCC(=O)*; dDab = NCC[C@@H](N)C(=O)O; Dab = NCC[C@H](N)C(=O)O Some results are limits rather than exact numbers.

Regarding `CC(C)CCCCC(=O)N[C@@H](CCN)C(=O)N[C@H](C(=O)N[C@@H](CCN)C(=O)N[C@H]1CCNC(=O)[C@H]([C@@H](C)O)NC(=O)[C@H](CCN)NC(=O)[C@H](CCN)NC(=O)[C@H](CC(C)C)NC(=O)[C@@H](Cc2ccccc2)NC(=O)[C@@H](CCN)NC1=O)[C@@H](C)O.CC[C@H](C)CCCCC(=O)N[C@@H](CCN)C(=O)N[C@H](C(=O)N[C@@H](CCN)C(=O)N[C@H]1CCNC(=O)[C@H]([C@@H](C)O)NC(=O)[C@H](CCN)NC(=O)[C@H](CCN)NC(=O)[C@H](CC(C)C)NC(=O)[C@@H](Cc2ccccc2)NC(=O)[C@@H](CCN)NC1=O)[C@@H](C)O` (X1-[Dab]T[Dab][Dab][dDab][dF]L[Dab][Dab]T; lactam 4-C), in the series on Staphylococcus aureus [1], the result was inactive. In addition, the result with Staphylococcus aureus [2], in the series on Staphylococcus aureus [3], with Staphylococcus aureus [4], with Staphylococcus aureus [5], in the series with Staphylococcus aureus [6] and in the series with Staphylococcus aureus [7] was Active. In addition, the outcome in the series with Staphylococcus aureus [8], with Staphylococcus aureus [9], in the series with Staphylococcus aureus [10], in the series on Staphylococcus aureus [11] and with Staphylococcus aureus [12] was Active.

In general, MIC refers to the lowest concentration that inhibits growth of the organism. Broadly, the half-life is how long it takes for the measured level to halve. As for `CCCCCCCCCCCC(=O)N[C@@H](CCCNC(=N)N)C(=O)N[C@@H](CCCNC(=N)N)C(=O)N[C@@H](Cc1c[nH]c2ccccc12)C(=O)O`, the minimal inhibitory concentration (MIC) with Enterococcus faecalis is 8 µM (≈ 5.59 µg/mL); in the series with Staphylococcus aureus [13], 4 µM (≈ 2.8 µg/mL); in the series on Staphylococcus aureus [15], above 128 µM; in the series on Staphylococcus aureus [16] it was above 128 µM; in the series with Staphylococcus aureus [18], 16 µM; against Staphylococcus aureus [20], 4 µM (≈ 2.8 µg/mL). Moreover, the minimum inhibitory concentration (MIC) was above 128 µM in the series with Staphylococcus aureus [21]; 64 µM with Staphylococcus aureus [24]; 2 µM (≈ 1.4 µg/mL) in series [26]; 32 µM with Staphylococcus aureus [27]; 4 µM (≈ 2.8 µg/mL) in the series with Staphylococcus aureus [28]; above 128 µM in the series on Staphylococcus aureus [29]. The MIC with Staphylococcus aureus [31] and with Staphylococcus aureus [33] was above 128 µM throughout. Further, the half-life in series [14] is 17.4 h. Moreover, the metabolised at 96 h in series [17] was around 100%. The “fold change (FC)” value in the series on Staphylococcus aureus [19] is given as 8; with Staphylococcus aureus [23], 4; with Staphylococcus aureus [25], below 3; with Staphylococcus aureus [32], below 3. This compound registered an HC10 in series [22] of 128 µM. The Retention_time in series [30] was 18.643 min.

Values taken from ChEMBL document CHEMBL6114969, “Ultra-short lipopeptides containing d-amino acid exhibiting excellent stability and antibacterial activity against gram-positive bacteria” (Eur J Med Chem, 2025).
